Data set [1] concerns IL-6. Nature of the data set: IL-6 ELISA in HIVIL (iKCs co-cultured with iHeps, LPS, 48 hr). The class given is cell-based, human. Conditions: for IL-6 response: result in words; for IC50: Homo sapiens, LPS, 48 hr. The text has this: Human iPSC cell line iPS (IMR90)-4 was purchased from WiCell Research Institute (Madison, WI), and maintained with a feeder-free method according to the instruction from […] Technologies (Vancouver, BC, Canada). The protocol of differentiation towards iKCs and iHeps as described previously with slight modification ([Tasnim et al., 2019]; [Cai et al., 2012]), respectively. […] More details are provided in Supplementary Methods. After differentiation, iKCs was harvested using 0.05 % trypsin-EDTA (Gibco, Waltham, Massachusetts, USA), while iHeps were dissociated with TrypLE^TM (Gibco). iHep suspension was further filtered through a 40 µm cell strainer to remove extracellular matrix clumps. Cell suspension was centrifuged at 1000 rpm for 5 min. For co-culture set up, tissue culture plates were coated with Rat tail collagen I (Gibco) diluted 100-fold in 0.02 N acetic acid, and incubated at 37 °C for 1 h and washed 3 times with PBS. According to the protocol optimized by [Tasnim et al. (2019)], iKCs was firstly seeded at a density of 14,000 per well on 96-well plate with Advanced DMEM (plus supplements) containing 5 % FBS. On the following day, iHeps were added at a density of 35,000 per well in Williams’ Medium E (plus supplements) (iHep: iKCs ratio = 2.5: 1). This reflects the physiological ratio of these cells in vivo under inflammatory conditions ([Tasnim et al., 2021]). Fresh media containing drugs was applied to co-cultures the next day. 50,000 cells were seeded to establish iHeps monoculture. THP-1 cells were kindly obtained from Dr. Eliza Fong and cultured as described by [Zeng et al. (2015)]. Details provided in Supplementary Methods.
(§1) Stock solutions of drugs were prepared in dimethyl sulfoxide (DMSO) and dissolved in medium prior to use. […] For these two drugs, the highest DMSO concentration was 1 %. Supernatant was collected at 48 hr for measurement of cytokines, and remaining cells were subjected to viability assay prior to lysis for RNA extraction.
Enzyme-linked immunosorbent assay (ELISA) for measurement of cytokines: Interleukin-6 (IL-6), interleukin-10 (IL-10) and tumor necrosis factor alpha (TNFα) levels in the media were measured using the corresponding human-based ELISA kits (Abcam, Cambridge, United Kingdom) according to manufacturer’s instructions. The cytokine production from dosed cells was normalized with the viability value from the same well. The normalized cytokine level upon drug treatments was further presented as percentage of DMSO+LPS. […] This normalization approach has been used in previous studies (Rose et al. 2016).

In data set [2] the test system is IL-10. Nature of the data set: IL-10 ELISA in HIVIL (iKCs co-cultured with iHeps, LPS, 48 hr). Particulars: result in words. The class given is cell-based, human. The text has this:
Human iPSC cell line iPS (IMR90)-4 was purchased from WiCell Research Institute (Madison, WI), and maintained with a feeder-free method according to the instruction from […] Technologies (Vancouver, BC, Canada). The protocol of differentiation towards iKCs and iHeps as described previously with slight modification ([Tasnim et al., 2019]; [Cai et al., 2012]), respectively. […] More details are provided in Supplementary Methods. After differentiation, iKCs was harvested using 0.05 % trypsin-EDTA (Gibco, Waltham, Massachusetts, USA), while iHeps were dissociated with TrypLE^TM (Gibco). iHep suspension was further filtered through a 40 µm cell strainer to remove extracellular matrix clumps. Cell suspension was centrifuged at 1000 rpm for 5 min. For co-culture set up, tissue culture plates were coated with Rat tail collagen I (Gibco) diluted 100-fold in 0.02 N acetic acid, and incubated at 37 °C for 1 h and washed 3 times with PBS. […]
Enzyme-linked immunosorbent assay (ELISA) for measurement of cytokines: Interleukin-6 (IL-6), interleukin-10 (IL-10) and tumor necrosis factor alpha (TNFα) levels in the media were measured using the corresponding human-based ELISA kits (Abcam, Cambridge, United Kingdom) according to manufacturer’s instructions. […]

In data set [3] the test system is HIVIL (iKCs co-cultured with iHeps). Kind of data set: AlamarBlue cell viability in HIVIL. Particulars: for IC50: Homo sapiens. The method, then:
as §1
(In general: Alamar Blue is a resazurin reagent that responds to reducing activity.)

Data set [4] concerns IL-6. Nature of the data set: IL-6 response in HIVIL using THP-1 macrophages co-cultured with iHeps. The class given is cell-based, human. Particulars: HIVIL with THP-1 instead of iKCs, result in words. The source says:
Human iPSC cell line iPS (IMR90)-4 was purchased from WiCell Research Institute (Madison, WI), and maintained with a feeder-free method according to the instruction from […] Technologies (Vancouver, BC, Canada). The protocol of differentiation towards iKCs and iHeps as described previously with slight modification ([Tasnim et al., 2019]; [Cai et al., 2012]), respectively. The re-optimized protocol to generate iKCs is discussed in Results section. More details are provided in Supplementary Methods. After differentiation, iKCs was harvested using 0.05 % trypsin-EDTA (Gibco, Waltham, Massachusetts, USA), while iHeps were dissociated with TrypLE^TM (Gibco). iHep suspension was further filtered through a 40 µm cell strainer to remove extracellular matrix clumps. Cell suspension was centrifuged at 1000 rpm for 5 min. For co-culture set up, tissue culture plates were coated with Rat tail collagen I (Gibco) diluted 100-fold in 0.02 N acetic acid, and incubated at 37 °C for 1 h and washed 3 times with PBS. According to the protocol optimized by [Tasnim et al. (2019)], iKCs was firstly seeded at a density of 14,000 per well on 96-well plate with Advanced DMEM (plus supplements) containing 5 % FBS. On the following day, iHeps were added at a density of 35,000 per well in Williams’ Medium E (plus supplements) (iHep: iKCs ratio = 2.5: 1). This reflects the physiological ratio of these cells in vivo under inflammatory conditions ([Tasnim et al., 2021]). Fresh media containing drugs was applied to co-cultures the next day. 50,000 cells were seeded to establish iHeps monoculture. THP-1 cells were kindly obtained from Dr. Eliza Fong and cultured as described by [Zeng et al. (2015)]. Details provided in Supplementary Methods.
THP-1 maintenance and differentiation: THP-1 monocytic lineage was maintained in RPMI 1640 with 10% FBS. For differentiation to macrophages, suspension cells were collected and subjected to 2-day phorbol 12-myristate 13-acetate (PMA) treatment (50 ng/ml), followed by a 1-day PMA-free medium resting. THP-1 macrophages were trypsinzed and used for co-culture as described in Material and methods.
(§2) Enzyme-linked immunosorbent assay (ELISA) for measurement of cytokines: Interleukin-6 (IL-6), interleukin-10 (IL-10) and tumor necrosis factor alpha (TNFα) levels in the media were measured using the corresponding human-based ELISA kits (Abcam, Cambridge, United Kingdom) according to manufacturer’s instructions. The cytokine production from dosed cells was normalized with the viability value from the same well. The normalized cytokine level upon drug treatments was further presented as percentage of DMSO+LPS. Normalization to viability per well ensures that any changes in cytokines are not due to changes in cell numbers upon drug treatment and normalization to DMSO+LPS allows better comparison between different batches of experiments. This normalization approach has been used in previous studies (Rose et al. 2016).

The subject of data set [5] is IL-6. Nature of the data set: IL-6 ELISA in iPSC(F4)-derived HIVIL. The class given is cell-based, human. Particulars: result in words. The method, then:
as §2

The conditions of data set [6]: Cammett et al. 2009, Mendes et al. 2014, cited from earlier work.
Data set [7] relates to IL-6. On the set-up: method as in Steuerwald et al. 2013; Mahdy et al. 2002; Kang et al. 2001. Conditions: ref Steuerwald et al. 2013; Mahdy et al. 2002; Kang et al. 2001; cited from earlier work.
In data set [8] the test system is IL-10. On the set-up: method as in Mahdy et al. 2002. Particulars: ref Mahdy et al. 2002; cited from earlier work.
A further data set concerns PHH-PHKC co-culture. On the set-up: method as in Messner et al., 2013; Sarkar et al., 2017. Conditions: ref Messner et al., 2013; Sarkar et al., 2017; cited from earlier work.
The subject of a further data set is PHH. On the set-up: method as in Mennecozzi et al., 2015. Particulars: ref Mennecozzi et al., 2015; read-out: IC50 in PHH mono-cultures; cited from earlier work.
For the next data set, the system named is iHeps mono-cultures. On the set-up: method as in Kia et al., 2015. Particulars: ref Kia et al., 2015; cited from earlier work.
For data set [9] the following is noted: FDA-labeling information; ref Chen et al. 2016; cited from earlier work.
For data set [10] the following is noted: binary classification by human hepatotoxicity; ref Thakkar et al. 2020; cited from earlier work.
Data set [11] has as its system IL-6. Nature of the data set: IL-6 production of iKC mono-culture. The class given is cell-based, human. Conditions: result in words. As to the method: as §2
Data set [12] relates to IL-10. On the set-up: method as in Bekker et al. 2016. Particulars: ref Bekker et al. 2016; cited from earlier work.
Another data set deals with cytokines. On the set-up: method as in ref Ganey et al. 2004; Honarmand et al. 2012; Manna and Aggarwal 1999; Yao et al. 2004. Particulars: ref Ganey et al. 2004; Honarmand et al. 2012; Manna and Aggarwal 1999; Yao et al. 2004; cited from earlier work.
For data set [13], the system named is IL-6. Conditions: other in vitro models deploying 1-10 μg/mL of LPS; ref Jiang et al. 2019; Li et al. 2020; cited from earlier work.
Setting [14] is: 48 h, read-out: IC50: viability.

Molecules are shown by their SMILES. Where two headings read alike, the source gives them in different places.

We go through two compounds from article PMC13289212, “HIVIL: A human in vitro inflammatory liver model recapitulates immune-associated drug effects with high predictivity” (NAM journal, 2025).

As for `O=C(O)Cc1ccccc1Nc1c(Cl)cccc1Cl` [DIC, diclofenac], in the data set on IL-6 [1] (HIVIL), the IL-6 response entry is “dose-dependent decrease”. Moreover, the IC50 – broadly, the point on the concentration scale where inhibition reaches its midpoint – was 112 µM in the data set on IL-6 [1] (HIVIL); 385 µM in data set [3] (setting [14]); 385 µM in [3] (read-out: IC50 (drug toxicity) in HIVIL); around 127 µM in the data set with PHH-PHKC co-culture; around 1000 µM in the data set on PHH; around 1000 µM in the data set with iHeps mono-cultures. The IL-10 response entry with IL-10 [2] is given as “decrease”. The “drug-specific IL-6 response with THP-1 macrophages” value with IL-6 [4] is given as “did not detect”. Besides, the IL-6 production entry in the data set on IL-6 [5] is on record as “Dose-dependent decrease”. Moreover, the Cmax (commonly the highest concentration seen after dosing) in data set [6] (ref in each cell: Ademisoye et al. 2018, Xu et al. 2008, Agabeyoglu and Incecayir 2009, Rojanasthien et al. 2007, Reunanen et al. 1992, Li et al. 2002, Hong-mei et al. 2013, Bareggi et al. 1987, Jiang et al. 2008) is 8 µM; in data set [6] (ref in each cell: Xu et al. 2008) it was 8 µM. For the same compound, the “Reported human responses: IL-6” value with IL-6 [7] is on record as “IL-6↓”. Also, the “Reported human responses: IL-10” value in the data set on IL-10 [8] was “IL-10↑”. Besides, the DILIrank entry in data set [9] is given as “most”. Further, in data set [10], the DILIst was 1.

On to `CC(=O)Nc1ccc(O)cc1` [APAP, acetaminophen], for which the “reduction of IL-6 in HIVIL” value with IL-6 [1] (2 mM) is around 50%. Further, in the data set on IL-6 [1] (HIVIL), the “group by drug-dependent IL-6 production” value is “dose-dependent inhibition”, the “reduction of IL-6” value is recorded as 50%, the IL-6 response result is “decreased” and the IC50 was 5360 µM. The half-inhibitory concentration (IC50) in [3] (setting [14]) came to 10200 µM. Besides, in data set [3] (comparison of mono-cultures and co-culture), the “viability profiles among iHeps, iKCs and HIVIL” value is “similar”. Further, in the data set on IL-6 [5], the IL-6 production entry is given as “Dose-dependent decrease”. Further, the “IL-6 / cytokine production in iKC mono-culture” value in the data set with IL-6 [11] is reported as “remained unchanged”. For the same compound, in the data set with IL-10 [12], the “Reported in-vivo (murine) responses: IL-10” value is recorded as “IL-10↓”. Besides, in the data set with cytokines, the “Reported in-vivo (murine) responses: cytokines” value was “IL-6/IL-10 are protective factors”. In addition, the IL-6 change result in the data set on IL-6 [13] is recorded as “increased”. For the same compound, the DILIrank entry in data set [9] was “most”.
